The text below walks through data of ChEMBL document CHEMBL5625187, “A facile and selective derivatization approach on kynurenine-NH2 in daptomycin, leading to the discovery of hexakynomycin to combat multidrug-resistant Gram-positive pathogens especially daptomycin-resistant bacteria” (Eur J Med Chem, 2023).

≈ marks a conversion by molar mass, not a printed value. Calls of active or inactive are those of the source. No cut-off for these calls is given here.

The MIC is the lowest concentration that inhibits growth of the organism. One may read the ED50 as the midpoint of the dose-response relation.

Series [1] deals with Enterococcus faecalis. The series can be described thus: Antibacterial activity against vancomycin-resistant Enterococcus faecalis VREfa 20-1 assessed as reduction in microbial growth incubated for 24 hrs by broth microdilution method. It is filed as functional.
The subject of series [2] is Enterococcus faecium. The series can be described thus: Antibacterial activity against glycopeptide-resistant Enterococcus faecium Efm-HS-0649 assessed as reduction in microbial growth incubated for 24 hrs by broth microdilution method. It is filed as functional. On the technique in general: Dilution methods test growth across graded concentrations, often in twofold steps.

In series [3] the test system is Staphylococcus aureus. The series can be described thus: Antibacterial activity against vancomycin-intermediate resistant Staphylococcus aureus ATCC 700699 assessed as reduction in microbial growth incubated for 24 hrs by broth microdilution method. It is filed as functional.
Series [4] has as its system Staphylococcus aureus. Briefly: Antibacterial activity against vancomycin-intermediate resistant Staphylococcus aureus Mu 50 assessed as reduction in microbial growth incubated for 24 hrs by broth microdilution method. It is filed as functional.
Series [5] has as its system Enterococcus faecalis. The series can be described thus: Antibacterial activity against Enterococcus faecalis EFA 20-1 assessed as reduction in microbial growth incubated for 24 hrs by broth microdilution method. It is filed as functional.
Series [6] relates to Staphylococcus aureus. Briefly: Antibacterial activity against Staphylococcus aureus assessed as reduction in bacterial growth incubated for 16 to 24 hrs by serial dilution method. Conditions: time 16-24 hrs. It is filed as functional.
Series [7] deals with Staphylococcus aureus. Briefly: Induction of membrane disruption in Staphylococcus aureus at 4 to 16 ug/ml incubated for 4 hrs by propidium iodide staining based flow cytometric analysis. Conditions: dose 4-16 µg/ml. It is filed as functional, organism-based. For orientation: A flow cytometer gives signals particle by particle.
Series [8] concerns Staphylococcus aureus. The series can be described thus: Ratio of MIC for antibacterial activity against Staphylococcus aureus in presence of MHB medium to MIC for antibacterial activity against Staphylococcus aureus CAMHB medium. It is filed as functional.
Series [9] relates to Staphylococcus aureus. The series can be described thus: Antibacterial activity against Staphylococcus aureus assessed as reduction in bacterial growth incubated for 16 to 24 hrs in presence of MHB medium by serial dilution method. It is filed as functional. Conditions: time 16-24 hrs.
In series [10] the test system is Staphylococcus aureus. The series can be described thus: Antibacterial activity against Staphylococcus aureus assessed as reduction in bacterial growth incubated for 16 to 24 hrs in presence of PG by serial dilution method. It is filed as functional. Conditions: time 16-24 hrs.
Series [11] concerns Staphylococcus aureus. The series can be described thus: Induction of drug resistance against Staphylococcus aureus Newman ATCC 25904 assessed as fold increase in MIC after 15 days by broth microdilution method. It is filed as functional. Conditions: time 15.0 day.
In series [12] the test system is Staphylococcus aureus. Briefly: Antibacterial activity against methicillin-resistant Staphylococcus aureus clinical isolate 20-3 infected in iv dosed Kunming mouse model assessed as increase in survival measured after 14 days. It is filed as functional. Conditions: Clinical isolate 20-3, 336 h, time 14 day.
The next series has as its system Erythrocyte. Briefly: Hemolytic activity in rat RBC at 400 ug/ml incubated for 1 hr. It is filed as toxicity, cell-based. Conditions: dose 400 µg/ml.
The test system of series [13] is Staphylococcus aureus. Briefly: Antibacterial activity against methicillin-resistant Staphylococcus aureus USA300 assessed as reduction in microbial growth incubated for 24 hrs by broth microdilution method. It is filed as functional.
Series [14] relates to Staphylococcus aureus. The series can be described thus: Antibacterial activity against methicillin-susceptible Staphylococcus aureus ATCC 29213 assessed as reduction in microbial growth incubated for 24 hrs by broth microdilution method. It is filed as functional.
The subject of series [15] is Staphylococcus aureus. The series can be described thus: Antibacterial activity against methicillin-resistant Staphylococcus aureus clinical isolate 20-3 assessed as reduction in microbial growth incubated for 24 hrs by broth microdilution method. It is filed as functional.
Series [16] has as its system Enterococcus faecium. The series can be described thus: Antibacterial activity against Enterococcus faecium EFM 20-1 assessed as reduction in microbial growth incubated for 24 hrs by broth microdilution method. It is filed as functional.
Series [17] deals with Staphylococcus aureus. The series can be described thus: Antibacterial activity against methicillin-susceptible Staphylococcus aureus clinical isolate 20-1 assessed as reduction in microbial growth incubated for 24 hrs by broth microdilution method. It is filed as functional.
A short description of series [18]: Observed volume of distribution at steady state in CD-1 mouse at 1 mg/kg, iv measured up to 24 hrs by UPLC-MS analysis. Conditions: in vivo, read-out: Vdss. It is filed as ADME, organism-based.
The subject of series [19] is Staphylococcus aureus. Briefly: Antibacterial activity against methicillin-susceptible Staphylococcus aureus Newman ATCC 25904 assessed as reduction in microbial growth incubated for 24 hrs by broth microdilution method. It is filed as functional.
The test system of series [20] is Staphylococcus aureus. Briefly: Ratio of MIC for antibacterial activity against Staphylococcus aureus in presence of PG to MIC for antibacterial activity against Staphylococcus aureus. It is filed as functional.
Series [21] concerns Staphylococcus aureus. Briefly: Antibacterial activity against Staphylococcus aureus assessed as reduction in bacterial growth incubated for 16 to 24 hrs in presence of CAMHB medium by serial dilution method. It is filed as functional. Conditions: time 16-24 hrs.
Series [22] deals with Staphylococcus aureus. Briefly: Antibacterial activity against methicillin-resistant Staphylococcus aureus clinical isolate 20-1 assessed as reduction in microbial growth incubated for 24 hrs by broth microdilution method. It is filed as functional.
The subject of series [23] is Staphylococcus aureus. Briefly: Antibacterial activity against methicillin-resistant Staphylococcus aureus clinical isolate 20-2 assessed as reduction in microbial growth incubated for 24 hrs by broth microdilution method. It is filed as functional.
Series [24] has as its system Enterococcus faecalis. Briefly: Antibacterial activity against Enterococcus faecalis ATCC 29212 assessed as reduction in microbial growth incubated for 24 hrs by broth microdilution method. It is filed as functional.
Series [25] deals with Enterococcus faecium. Briefly: Potency index, ratio of daptomycin MIC to test compound MIC for antibacterial activity against glycopeptide-resistant Enterococcus faecium Efm-HS-0649. It is filed as functional.
In series [26] the test system is Staphylococcus aureus. Briefly: Potency index, ratio of daptomycin MIC to test compound MIC for antibacterial activity against methicillin-susceptible Staphylococcus aureus Newman ATCC 25904. It is filed as functional.

In the case of `CN[C@H](CC(C)C)C(=O)N[C@H]1C(=O)N[C@@H](CC(N)=O)C(=O)N[C@H]2C(=O)N[C@H]3C(=O)N[C@H](C(=O)N[C@H](C(=O)O)c4cc(O)cc(O)c4-c4cc3ccc4O)[C@H](O)c3ccc(c(Cl)c3)Oc3cc2cc(c3O[C@@H]2O[C@H](CO)[C@@H](O)[C@H](O)[C@H]2O[C@H]2C[C@](C)(N)[C@H](O)[C@H](C)O2)Oc2ccc(cc2Cl)[C@H]1O` [VANCOMYCIN], the MIC is > 16 µg/mL in the series with Enterococcus faecalis [1]; > 128 µg/mL in the series on Enterococcus faecium [2]; 8 µg/mL in the series with Staphylococcus aureus [3]; 8 µg/mL in the series on Staphylococcus aureus [4]; 1 µg/mL in the series with Enterococcus faecalis [5].
As for `CCCCCCCCCC(=O)N[C@@H](Cc1c[nH]c2ccccc12)C(=O)N[C@H](CC(N)=O)C(=O)N[C@@H](CC(=O)O)C(=O)N[C@@H]1C(=O)NCC(=O)N[C@@H](CCCN)C(=O)N[C@@H](CC(=O)O)C(=O)N[C@H](C)C(=O)N[C@@H](CC(=O)O)C(=O)NCC(=O)N[C@H](CO)C(=O)N[C@@H]([C@H](C)CC(=O)O)C(=O)N[C@@H](CC(=O)c2ccccc2N)C(=O)O[C@@H]1C`, the minimal inhibitory concentration (MIC) came out at 4 µg/mL (≈ 2.47 µM) in the series with Staphylococcus aureus [6]; 8 µg/mL with Enterococcus faecalis [1]; 8 µg/mL with Enterococcus faecium [2]; 8 µg/mL in the series with Staphylococcus aureus [3]; 64 µg/mL in the series with Staphylococcus aureus [9]; 128 µg/mL in the series on Staphylococcus aureus [10]. Besides, the MIC is 2 µg/mL with Staphylococcus aureus [13]; 1 µg/mL in the series on Staphylococcus aureus [14]; 1 µg/mL in the series with Staphylococcus aureus [15]; 8 µg/mL in the series with Enterococcus faecium [16]; 1 µg/mL in the series with Staphylococcus aureus [17]; 2 µg/mL with Staphylococcus aureus [19]. The MIC is 4 µg/mL in the series with Staphylococcus aureus [21]; 8 µg/mL with Staphylococcus aureus [4]; 1 µg/mL in the series with Staphylococcus aureus [22]; 4 µg/mL with Enterococcus faecalis [5]; 1 µg/mL in the series with Staphylococcus aureus [23]; 4 µg/mL in the series with Enterococcus faecalis [24]. Moreover, the outcome in the series on Staphylococcus aureus [7] was Active. Besides, the Ratio in the series on Staphylococcus aureus [8] stood at 16; in the series on Staphylococcus aureus [20] it was 32. The fold change (FC) in the series on Staphylococcus aureus [11] turned out to be 4. For the same compound, the 50% effective dose (ED50) with Staphylococcus aureus [12] came to 0.2 mg/kg. The Activity entry in the series with Erythrocyte is reported as “Non-Toxic”. Further, the Vd in series [18] was determined as 0.115 L/kg.
For `CCCCCCCCCC(=O)N[C@@H](Cc1c[nH]c2ccccc12)C(=O)N[C@H](CC(N)=O)C(=O)N[C@@H](CC(=O)O)C(=O)N[C@@H]1C(=O)NCC(=O)N[C@@H](CCCN)C(=O)N[C@@H](CC(=O)O)C(=O)N[C@H](C)C(=O)N[C@@H](CC(=O)O)C(=O)NCC(=O)N[C@H](CO)C(=O)N[C@@H]([C@H](C)CC(=O)O)C(=O)N[C@@H](CC(=O)c2ccccc2NCCCC)C(=O)O[C@@H]1C` (single isomer, unassigned), the Ratio with Enterococcus faecium [25] and in the series with Staphylococcus aureus [26] was 2 in each case. Further, the MIC in the series with Enterococcus faecium [2] is 1 µg/mL; with Staphylococcus aureus [13] it was 0.5 µg/mL; in the series on Staphylococcus aureus [19], 0.5 µg/mL; with Staphylococcus aureus [4] it was 4 µg/mL.
`CCCCCCCCCC(=O)N[C@@H](Cc1c[nH]c2ccccc12)C(=O)N[C@H](CC(N)=O)C(=O)N[C@@H](CC(=O)O)C(=O)N[C@@H]1C(=O)NCC(=O)N[C@@H](CCCN)C(=O)N[C@@H](CC(=O)O)C(=O)N[C@H](C)C(=O)N[C@@H](CC(=O)O)C(=O)NCC(=O)N[C@H](CO)C(=O)N[C@@H]([C@H](C)CC(=O)O)C(=O)N[C@@H](CC(=O)c2ccccc2NCCCCC)C(=O)O[C@@H]1C` (single isomer, unassigned): the Ratio in the series with Enterococcus faecium [25] and in the series on Staphylococcus aureus [26] was 2 each time. The minimal inhibitory concentration (MIC) turned out to be 0.5 µg/mL with Enterococcus faecium [2], 0.125 µg/mL with Staphylococcus aureus [13], 0.5 µg/mL in the series with Staphylococcus aureus [19] and 2 µg/mL in the series on Staphylococcus aureus [4].
`CCCCCCCCCC(=O)N[C@@H](Cc1c[nH]c2ccccc12)C(=O)N[C@H](CC(N)=O)C(=O)N[C@@H](CC(=O)O)C(=O)N[C@@H]1C(=O)NCC(=O)N[C@@H](CCCN)C(=O)N[C@@H](CC(=O)O)C(=O)N[C@H](C)C(=O)N[C@@H](CC(=O)O)C(=O)NCC(=O)N[C@H](CO)C(=O)N[C@@H]([C@H](C)CC(=O)O)C(=O)N[C@@H](CC(=O)c2ccccc2NCC)C(=O)O[C@@H]1C` (single isomer, unassigned): the Ratio in the series on Enterococcus faecium [25] and in the series with Staphylococcus aureus [26] was 2 throughout. In addition, the MIC is 1 µg/mL with Enterococcus faecium [2], 1 µg/mL in the series on Staphylococcus aureus [13], 1 µg/mL in the series on Staphylococcus aureus [19] and 4 µg/mL in the series with Staphylococcus aureus [4].
Turning to `CCCCCCCCCC(=O)N[C@@H](Cc1c[nH]c2ccccc12)C(=O)N[C@H](CC(N)=O)C(=O)N[C@@H](CC(=O)O)C(=O)N[C@@H]1C(=O)NCC(=O)N[C@@H](CCCN)C(=O)N[C@@H](CC(=O)O)C(=O)N[C@H](C)C(=O)N[C@@H](CC(=O)O)C(=O)NCC(=O)N[C@H](CO)C(=O)N[C@@H]([C@H](C)CC(=O)O)C(=O)N[C@@H](CC(=O)c2ccccc2NCc2ccccn2)C(=O)O[C@@H]1C`, the Ratio with Enterococcus faecium [25] and in the series with Staphylococcus aureus [26] was 8 throughout. Besides, the minimum inhibitory concentration (MIC) with Enterococcus faecium [2] worked out at 8 µg/mL; with Staphylococcus aureus [13] it was 4 µg/mL; with Staphylococcus aureus [19], 8 µg/mL; in the series on Staphylococcus aureus [4], 32 µg/mL.
